Test results from PubChem BioAssay (NCI).
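GI50 marks 50% less growth. TGI: total growth inhibition.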

Assays:
Assay in all cases: inhibition of tumour cell growth, NCI panel, 384-well format
COLO 205 colon = system: COLO 205 colon
KM12 colon = system: KM12 colon
DU-145 prostate = system: DU-145 prostate
OVCAR-8 ovarian = system: OVCAR-8 ovarian
MDA-MB-468 breast = system: MDA-MB-468 breast
SK-MEL-2 melanoma = system: SK-MEL-2 melanoma
HOP-92 NSCLC = system: HOP-92 NSCLC
NCI-H322M lung = system: NCI-H322M lung
SNB-19 CNS = system: SNB-19 CNS
MDA-MB-231 breast = system: MDA-MB-231 breast
MDA-MB-435 melanoma = system: MDA-MB-435 melanoma
ACHN renal = system: ACHN renal
M14 melanoma = system: M14 melanoma
RXF 393 renal = system: RXF 393 renal
MCF7 breast = system: MCF7 breast
BT-549 breast = system: BT-549 breast
SK-MEL-28 melanoma = system: SK-MEL-28 melanoma
SW-620 colon = system: SW-620 colon
K-562 leukemia = system: K-562 leukemia
HS 578T breast = system: HS 578T breast
LOX IMVI melanoma = system: LOX IMVI melanoma
NCI-H460 NSCLC = system: NCI-H460 NSCLC
SF-539 CNS = system: SF-539 CNS
NCI-H23 lung = system: NCI-H23 lung
OVCAR-3 ovarian = system: OVCAR-3 ovarian
U251 glioblastoma = system: U251 glioblastoma
OVCAR-5 ovarian = system: OVCAR-5 ovarian
EKVX NSCLC = system: EKVX NSCLC
OVCAR-4 ovarian = system: OVCAR-4 ovarian
SR leukemia = system: SR leukemia
CCRF-CEM leukemia = system: CCRF-CEM leukemia
A498 renal = system: A498 renal
SF-268 CNS = system: SF-268 CNS
HCC-2998 colon = system: HCC-2998 colon
HL-60(TB) leukemia = system: HL-60(TB) leukemia
NCI/ADR-RES ovarian = system: NCI/ADR-RES ovarian
NCI-H226 lung = system: NCI-H226 lung
UO-31 renal = system: UO-31 renal
SK-MEL-5 melanoma = system: SK-MEL-5 melanoma
MOLT-4 leukemia = system: MOLT-4 leukemia
UACC-62 melanoma = system: UACC-62 melanoma
HT29 colon = system: HT29 colon
IGROV1 ovarian = system: IGROV1 ovarian
TK-10 renal = system: TK-10 renal
A549 NSCLC = system: A549 NSCLC
MALME-3M melanoma = system: MALME-3M melanoma
SF-295 CNS = system: SF-295 CNS

## O=C(Nc1cnn2ccc(N3CCC[C@@H]3c3cc(F)ccc3F)nc12)N1CC[C@H](O)C1
COLO 205 colon
  GI50: > 100 µM
  TGI: > 100 µM
KM12 colon
  GI50: 0.0181 µM
  TGI: > 100 µM
DU-145 prostate
  GI50: > 100 µM
  TGI: > 100 µM
OVCAR-8 ovarian
  GI50: > 100 µM
  TGI: > 100 µM
MDA-MB-468 breast
  GI50: > 100 µM
  TGI: > 100 µM
SK-MEL-2 melanoma
  GI50: > 100 µM
  TGI: > 100 µM
HOP-92 NSCLC
  GI50: > 100 µM
  TGI: > 100 µM
NCI-H322M lung
  GI50: > 100 µM
  TGI: > 100 µM
SNB-19 CNS
  GI50: > 100 µM
  TGI: > 100 µM
MDA-MB-231 breast
  GI50: > 100 µM
  TGI: > 100 µM
MDA-MB-435 melanoma
  GI50: > 100 µM
  TGI: > 100 µM
ACHN renal
  GI50: > 100 µM
  TGI: > 100 µM
M14 melanoma
  GI50: > 100 µM
  TGI: > 100 µM
RXF 393 renal
  GI50: > 100 µM
  TGI: > 100 µM
MCF7 breast
  GI50: > 100 µM
  TGI: > 100 µM
BT-549 breast
  GI50: > 100 µM
  TGI: > 100 µM
SK-MEL-28 melanoma
  GI50: > 100 µM
  TGI: > 100 µM
SW-620 colon
  GI50: > 100 µM
  TGI: > 100 µM
K-562 leukemia
  GI50: > 100 µM
  TGI: > 100 µM
HS 578T breast
  GI50: > 100 µM
  TGI: > 100 µM
LOX IMVI melanoma
  GI50: > 100 µM
  TGI: > 100 µM
NCI-H460 NSCLC
  GI50: > 100 µM
  TGI: > 100 µM
SF-539 CNS
  GI50: > 100 µM
  TGI: > 100 µM
NCI-H23 lung
  GI50: > 100 µM
  TGI: > 100 µM
OVCAR-3 ovarian
  GI50: > 100 µM
  TGI: > 100 µM
U251 glioblastoma
  GI50: > 100 µM
  TGI: > 100 µM
OVCAR-5 ovarian
  GI50: > 100 µM
  TGI: > 100 µM
EKVX NSCLC
  GI50: > 100 µM
  TGI: > 100 µM
OVCAR-4 ovarian
  GI50: > 100 µM
  TGI: > 100 µM
SR leukemia
  GI50: > 78.9 µM
  TGI: > 100 µM
CCRF-CEM leukemia
  GI50: > 100 µM
  TGI: > 100 µM
A498 renal
  GI50: > 100 µM
  TGI: > 100 µM
SF-268 CNS
  GI50: > 100 µM
  TGI: > 100 µM
HCC-2998 colon
  GI50: > 100 µM
  TGI: > 100 µM
HL-60(TB) leukemia
  GI50: > 100 µM
  TGI: > 100 µM
NCI/ADR-RES ovarian
  GI50: > 100 µM
  TGI: > 100 µM
NCI-H226 lung
  GI50: > 100 µM
  TGI: > 100 µM
UO-31 renal
  GI50: > 100 µM
  TGI: > 100 µM
SK-MEL-5 melanoma
  GI50: > 100 µM
  TGI: > 100 µM
MOLT-4 leukemia
  GI50: 77.1 µM
  TGI: > 100 µM
UACC-62 melanoma
  GI50: > 100 µM
  TGI: > 100 µM
HT29 colon
  GI50: > 100 µM
  TGI: > 100 µM
IGROV1 ovarian
  GI50: > 100 µM
  TGI: > 100 µM
TK-10 renal
  GI50: > 100 µM
  TGI: > 100 µM
A549 NSCLC
  GI50: > 100 µM
  TGI: > 100 µM
MALME-3M melanoma
  GI50: > 100 µM
  TGI: > 100 µM
SF-295 CNS
  GI50: > 100 µM
  TGI: > 100 µM
